Measurements from PubChem BioAssay (NCI).
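Results reflect a 48-hour exposure of cells in 96-well plates to compound at five concentrations. GI50: concentration for 50% inhibition of growth. Definition used: TGI = concentration required for complete inhibition of growth.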

How the values were obtained:
Assay in all cases: growth of human tumour cells (NCI), 48 h
[1] = tested on: BT-549 breast
[2] = tested on: T-47D breast
[3] = tested on: SF-539 CNS
[4] = tested on: PC-3 prostate
[5] = tested on: MDA-MB-435
[6] = tested on: NCI/ADR-RES ovarian
[7] = tested on: IGROV1 ovarian
[8] = tested on: MDA-MB-231 breast
[9] = tested on: MOLT-4 leukemia
[10] = tested on: OVCAR-8 ovarian
[11] = tested on: SK-OV-3 ovarian
[12] = tested on: SF-268 CNS
[13] = tested on: HCT-15 colon
[14] = tested on: MALME-3M melanoma
[15] = tested on: MCF7 breast
[16] = tested on: SNB-19 CNS
[17] = tested on: OVCAR-4 ovarian
[18] = tested on: HOP-92 NSCLC
[19] = tested on: K-562 leukemia
[20] = tested on: RXF 393 renal
[21] = tested on: SN12C renal
[22] = tested on: HL-60(TB) leukemia
[23] = tested on: KM12 colon
[24] = tested on: RPMI-8226 leukemia
[25] = tested on: SNB-75 CNS
[26] = tested on: HCT-116 colon
[27] = tested on: HCC-2998 colon
[28] = tested on: CAKI-1 renal
[29] = tested on: A498 renal
[30] = tested on: A549 NSCLC
[31] = tested on: UACC-62 melanoma
[32] = tested on: OVCAR-5 ovarian
[33] = tested on: NCI-H522 lung
[34] = tested on: NCI-H226 lung
[35] = tested on: SW-620 colon
[36] = tested on: HS 578T breast
[37] = tested on: OVCAR-3 ovarian
[38] = tested on: SK-MEL-2 melanoma
[39] = tested on: NCI-H23 lung
[40] = tested on: U251 CNS
[41] = tested on: 786-0 renal
[42] = tested on: COLO 205 colon
[43] = tested on: SK-MEL-28 melanoma
[44] = tested on: DU-145 prostate
[45] = tested on: UACC-257 melanoma
[46] = tested on: LOX IMVI melanoma
[47] = tested on: ACHN renal
[48] = tested on: M14 melanoma
[49] = tested on: EKVX NSCLC
[50] = tested on: HOP-62 NSCLC
[51] = tested on: CCRF-CEM leukemia
[52] = tested on: SF-295 CNS
[53] = tested on: HT29 colon
[54] = tested on: UO-31 renal
[55] = tested on: SK-MEL-5 melanoma
[56] = tested on: SR leukemia
[57] = tested on: NCI-H460 lung
[58] = tested on: TK-10 renal

CNC(=O)c1ccc2cc(C3(O)CCn4cncc43)ccc2c1 (configuration not stated)
GI50 [1]: > 100 µM
TGI [1]: > 100 µM
GI50 [2]: > 100 µM
TGI [2]: > 100 µM
GI50 [3]: > 100 µM
TGI [3]: > 100 µM
GI50 [4]: > 100 µM
TGI [4]: > 100 µM
GI50 [5]: > 100 µM
TGI [5]: > 100 µM
GI50 [6]: > 100 µM
TGI [6]: > 100 µM
GI50 [7]: > 100 µM
TGI [7]: > 100 µM
GI50 [8]: > 100 µM
TGI [8]: > 100 µM
GI50 [9]: > 100 µM
TGI [9]: > 100 µM
GI50 [10]: > 100 µM
TGI [10]: > 100 µM
GI50 [11]: > 100 µM
TGI [11]: > 100 µM
GI50 [12]: > 100 µM
TGI [12]: > 100 µM
GI50 [13]: > 100 µM
TGI [13]: > 100 µM
GI50 [14]: > 100 µM
TGI [14]: > 100 µM
GI50 [15]: > 100 µM
TGI [15]: > 100 µM
GI50 [16]: > 100 µM
TGI [16]: > 100 µM
GI50 [17]: > 100 µM
TGI [17]: > 100 µM
GI50 [18]: > 100 µM
TGI [18]: > 100 µM
GI50 [19]: > 100 µM
TGI [19]: > 100 µM
GI50 [20]: > 100 µM
TGI [20]: > 100 µM
GI50 [21]: > 100 µM
TGI [21]: > 100 µM
GI50 [22]: > 73.5 µM
TGI [22]: > 100 µM
GI50 [23]: > 100 µM
TGI [23]: > 100 µM
GI50 [24]: > 100 µM
TGI [24]: > 100 µM
GI50 [25]: > 100 µM
TGI [25]: > 100 µM
GI50 [26]: > 100 µM
TGI [26]: > 100 µM
GI50 [27]: > 100 µM
TGI [27]: > 100 µM
GI50 [28]: > 100 µM
TGI [28]: > 100 µM
GI50 [29]: > 100 µM
TGI [29]: > 100 µM
GI50 [30]: > 100 µM
TGI [30]: > 100 µM
GI50 [31]: > 100 µM
TGI [31]: > 100 µM
GI50 [32]: > 100 µM
TGI [32]: > 100 µM
GI50 [33]: > 100 µM
TGI [33]: > 100 µM
GI50 [34]: > 100 µM
TGI [34]: > 100 µM
GI50 [35]: > 100 µM
TGI [35]: > 100 µM
GI50 [36]: > 100 µM
TGI [36]: > 100 µM
GI50 [37]: > 100 µM
TGI [37]: > 100 µM
GI50 [38]: > 100 µM
TGI [38]: > 100 µM
GI50 [39]: > 100 µM
TGI [39]: > 100 µM
GI50 [40]: > 100 µM
TGI [40]: > 100 µM
GI50 [41]: > 100 µM
TGI [41]: > 100 µM
GI50 [42]: > 100 µM
TGI [42]: > 100 µM
GI50 [43]: > 100 µM
TGI [43]: > 100 µM
GI50 [44]: > 100 µM
TGI [44]: > 100 µM
GI50 [45]: > 100 µM
TGI [45]: > 100 µM
GI50 [46]: > 100 µM
TGI [46]: > 100 µM
GI50 [47]: > 100 µM
TGI [47]: > 100 µM
GI50 [48]: > 100 µM
TGI [48]: > 100 µM
GI50 [49]: > 100 µM
TGI [49]: > 100 µM
GI50 [50]: > 100 µM
TGI [50]: > 100 µM
GI50 [51]: > 100 µM
TGI [51]: > 100 µM
GI50 [52]: > 100 µM
TGI [52]: > 100 µM
GI50 [53]: > 100 µM
TGI [53]: > 100 µM
GI50 [54]: > 100 µM
TGI [54]: > 100 µM
GI50 [55]: > 100 µM
TGI [55]: > 100 µM
GI50 [56]: > 100 µM
TGI [56]: > 100 µM
GI50 [57]: > 100 µM
TGI [57]: > 100 µM
GI50 [58]: > 100 µM
TGI [58]: > 100 µM

O=C1c2ccccc2C(=Cc2ccccc2)c2ccccc21
GI50 [1]: 3.71 µM
TGI [1]: 15.6 µM
GI50 [2]: 2.68 µM
TGI [2]: 9.65 µM
GI50 [3]: 3.57 µM
TGI [3]: 11.9 µM
GI50 [4]: 2.26 µM
TGI [4]: 15.8 µM
GI50 [5]: 0.31 µM
TGI [5]: 11.9 µM
GI50 [6]: 1.6 µM
TGI [6]: 6.62 µM
GI50 [7]: 2.35 µM
TGI [7]: 11.4 µM
GI50 [8]: 2.78 µM
TGI [8]: 35.9 µM
GI50 [9]: 4.74 µM
TGI [9]: > 100 µM
GI50 [10]: 2.19 µM
TGI [10]: 5.26 µM
GI50 [11]: 2.54 µM
TGI [11]: 9.05 µM
GI50 [12]: 3.34 µM
TGI [12]: 16.6 µM
GI50 [13]: 2.16 µM
TGI [13]: 21.8 µM
GI50 [14]: 6.2 µM
TGI [14]: 23.4 µM
GI50 [15]: 1.44 µM
TGI [15]: 12 µM
GI50 [16]: 3.61 µM
TGI [16]: 16.9 µM
GI50 [17]: 4.31 µM
TGI [17]: 24.4 µM
GI50 [18]: 1.45 µM
TGI [18]: 5.17 µM
GI50 [19]: 0.673 µM
TGI [19]: 16 µM
GI50 [20]: 3.06 µM
TGI [20]: 9.63 µM
GI50 [21]: 2.97 µM
TGI [21]: 14.1 µM
GI50 [22]: 2.72 µM
TGI [22]: 62.8 µM
GI50 [23]: 1.8 µM
TGI [23]: 9.81 µM
GI50 [24]: 3 µM
TGI [24]: 14.6 µM
GI50 [25]: 2.34 µM
TGI [25]: 7.45 µM
GI50 [26]: 1.89 µM
TGI [26]: 5.13 µM
GI50 [27]: 2.69 µM
TGI [27]: 10.1 µM
GI50 [28]: 1.54 µM
TGI [28]: 5.49 µM
GI50 [29]: 2.3 µM
TGI [29]: 9.52 µM
GI50 [30]: 3.22 µM
TGI [30]: 9.97 µM
GI50 [31]: 1.68 µM
TGI [31]: 10.3 µM
GI50 [32]: 5.04 µM
TGI [32]: 16.9 µM
GI50 [33]: 1.55 µM
TGI [33]: 5.63 µM
GI50 [34]: 4.99 µM
TGI [34]: 20.4 µM
GI50 [35]: 2.43 µM
TGI [35]: 13.8 µM
GI50 [36]: 3.9 µM
TGI [36]: > 100 µM
GI50 [37]: 2.56 µM
TGI [37]: 9.11 µM
GI50 [38]: 1.78 µM
TGI [38]: 4.95 µM
GI50 [39]: 2.59 µM
TGI [39]: 14.1 µM
GI50 [40]: 2.97 µM
TGI [40]: 9.23 µM
GI50 [41]: 2.7 µM
TGI [41]: 6.94 µM
GI50 [42]: 2.2 µM
TGI [42]: 5.14 µM
GI50 [43]: 4.23 µM
TGI [43]: 17.4 µM
GI50 [44]: 2.44 µM
TGI [44]: 6.94 µM
GI50 [45]: 5.22 µM
TGI [45]: 23.9 µM
GI50 [46]: 2.32 µM
TGI [46]: 10.7 µM
GI50 [47]: 3.89 µM
TGI [47]: 13.4 µM
GI50 [48]: 2.21 µM
TGI [48]: 7.86 µM
GI50 [49]: 2.93 µM
TGI [49]: 37.9 µM
GI50 [50]: 2.62 µM
TGI [50]: 10.2 µM
GI50 [51]: 2.77 µM
TGI [51]: 29 µM
GI50 [52]: 2.59 µM
TGI [52]: 13.6 µM
GI50 [53]: 1.17 µM
TGI [53]: 4.33 µM
GI50 [54]: 2.1 µM
TGI [54]: 10.2 µM
GI50 [55]: 2.77 µM
TGI [55]: 10.9 µM
GI50 [56]: 0.871 µM
TGI [56]: 18.3 µM
GI50 [57]: 2.98 µM
TGI [57]: 15 µM
GI50 [58]: 3.03 µM
TGI [58]: 10.1 µM
